Reference: US11208412B2 (DAEGU-GYEONGBUK MEDICAL INNOVATION FOUNDATION, priority 2017, dated 2021)

Experiments:
Test in all cases: Kinase selectivity, DiscoverX scanMAX Kinase assay panel (% control)
Format in all cases: binding
[1] = biological target: T1, kinases of the scanMAX Kinase assay panel (Homo sapiens, UniProt Q13131); conditions: AMPK-alpha1; 1 uM
T1 construct: purchased DiscoverX Co. (contract measurement) scanMAX Kinase assay panel
In short: (§1)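 Single-point screen, 1 uM cpd in DMSO. % ctrl = (cpd − pos ctrl)/(neg ctrl − pos ctrl)×100; pos ctrl = 0%, DMSO neg ctrl = 100%. Hit cutoff <35%.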

[2] = biological target: T2, kinases of the scanMAX Kinase assay panel (Homo sapiens, UniProt Q8IU85); conditions: CAMK1D; 1 uM
T2 construct: purchased DiscoverX Co. (contract measurement) scanMAX Kinase assay panel
T2 sequence (Q8IU85 whole entry): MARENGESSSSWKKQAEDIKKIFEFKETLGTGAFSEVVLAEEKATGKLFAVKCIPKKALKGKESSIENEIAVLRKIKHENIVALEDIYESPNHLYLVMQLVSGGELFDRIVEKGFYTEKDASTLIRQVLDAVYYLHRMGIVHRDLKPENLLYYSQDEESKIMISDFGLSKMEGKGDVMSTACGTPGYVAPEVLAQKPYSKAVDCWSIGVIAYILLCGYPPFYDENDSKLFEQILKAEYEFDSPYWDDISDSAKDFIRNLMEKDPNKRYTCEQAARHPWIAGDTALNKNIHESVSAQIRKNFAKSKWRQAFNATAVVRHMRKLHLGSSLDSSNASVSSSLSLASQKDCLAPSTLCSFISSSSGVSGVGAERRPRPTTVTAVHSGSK
In short: as §1

[3] = biological target: T3, kinases of the scanMAX Kinase assay panel (Homo sapiens, UniProt P06213); conditions: INSR; 1 uM
T3 construct: purchased DiscoverX Co. (contract measurement) scanMAX Kinase assay panel
In short: as §1

[4] = biological target: T4, kinases of the scanMAX Kinase assay panel (Homo sapiens, UniProt Q15831); conditions: LKB1; 1 uM
T4 construct: purchased DiscoverX Co. (contract measurement) scanMAX Kinase assay panel
T4 sequence (Q15831 1-433): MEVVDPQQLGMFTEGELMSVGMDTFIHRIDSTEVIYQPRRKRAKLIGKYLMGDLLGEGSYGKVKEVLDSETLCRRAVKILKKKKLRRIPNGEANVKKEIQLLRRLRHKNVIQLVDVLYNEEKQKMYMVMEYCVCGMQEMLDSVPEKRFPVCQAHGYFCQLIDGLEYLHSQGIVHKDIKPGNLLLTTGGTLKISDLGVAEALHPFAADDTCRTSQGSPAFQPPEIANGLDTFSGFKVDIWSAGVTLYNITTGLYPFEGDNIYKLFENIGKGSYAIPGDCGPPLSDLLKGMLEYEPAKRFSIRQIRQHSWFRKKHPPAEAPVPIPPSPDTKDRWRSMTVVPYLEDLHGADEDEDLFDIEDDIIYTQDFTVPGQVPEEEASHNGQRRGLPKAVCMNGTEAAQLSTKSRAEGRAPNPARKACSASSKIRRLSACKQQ
In short: as §1

[5] = biological target: T5, kinases of the scanMAX Kinase assay panel (Homo sapiens, UniProt Q9P289); conditions: MST4; 1 uM
T5 construct: purchased DiscoverX Co. (contract measurement) scanMAX Kinase assay panel
T5 sequence (Q9P289 whole entry): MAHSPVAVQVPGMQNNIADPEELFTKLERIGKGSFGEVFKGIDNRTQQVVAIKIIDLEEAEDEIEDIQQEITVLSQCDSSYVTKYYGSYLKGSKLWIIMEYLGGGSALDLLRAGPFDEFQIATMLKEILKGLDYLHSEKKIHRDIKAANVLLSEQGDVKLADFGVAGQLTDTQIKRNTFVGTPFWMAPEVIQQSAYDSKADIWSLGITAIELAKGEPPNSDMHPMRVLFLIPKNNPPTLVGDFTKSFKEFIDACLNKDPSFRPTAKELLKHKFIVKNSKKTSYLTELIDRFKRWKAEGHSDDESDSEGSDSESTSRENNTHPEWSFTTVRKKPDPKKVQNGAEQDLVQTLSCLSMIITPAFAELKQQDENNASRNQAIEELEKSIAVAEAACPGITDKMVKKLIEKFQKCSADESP
In short: as §1

[6] = biological target: T6, kinases of the scanMAX Kinase assay panel (Homo sapiens, UniProt P08069); conditions: IGF1R; 1 uM
T6 construct: purchased DiscoverX Co. (contract measurement) scanMAX Kinase assay panel
T6 sequence (P08069 31-1367): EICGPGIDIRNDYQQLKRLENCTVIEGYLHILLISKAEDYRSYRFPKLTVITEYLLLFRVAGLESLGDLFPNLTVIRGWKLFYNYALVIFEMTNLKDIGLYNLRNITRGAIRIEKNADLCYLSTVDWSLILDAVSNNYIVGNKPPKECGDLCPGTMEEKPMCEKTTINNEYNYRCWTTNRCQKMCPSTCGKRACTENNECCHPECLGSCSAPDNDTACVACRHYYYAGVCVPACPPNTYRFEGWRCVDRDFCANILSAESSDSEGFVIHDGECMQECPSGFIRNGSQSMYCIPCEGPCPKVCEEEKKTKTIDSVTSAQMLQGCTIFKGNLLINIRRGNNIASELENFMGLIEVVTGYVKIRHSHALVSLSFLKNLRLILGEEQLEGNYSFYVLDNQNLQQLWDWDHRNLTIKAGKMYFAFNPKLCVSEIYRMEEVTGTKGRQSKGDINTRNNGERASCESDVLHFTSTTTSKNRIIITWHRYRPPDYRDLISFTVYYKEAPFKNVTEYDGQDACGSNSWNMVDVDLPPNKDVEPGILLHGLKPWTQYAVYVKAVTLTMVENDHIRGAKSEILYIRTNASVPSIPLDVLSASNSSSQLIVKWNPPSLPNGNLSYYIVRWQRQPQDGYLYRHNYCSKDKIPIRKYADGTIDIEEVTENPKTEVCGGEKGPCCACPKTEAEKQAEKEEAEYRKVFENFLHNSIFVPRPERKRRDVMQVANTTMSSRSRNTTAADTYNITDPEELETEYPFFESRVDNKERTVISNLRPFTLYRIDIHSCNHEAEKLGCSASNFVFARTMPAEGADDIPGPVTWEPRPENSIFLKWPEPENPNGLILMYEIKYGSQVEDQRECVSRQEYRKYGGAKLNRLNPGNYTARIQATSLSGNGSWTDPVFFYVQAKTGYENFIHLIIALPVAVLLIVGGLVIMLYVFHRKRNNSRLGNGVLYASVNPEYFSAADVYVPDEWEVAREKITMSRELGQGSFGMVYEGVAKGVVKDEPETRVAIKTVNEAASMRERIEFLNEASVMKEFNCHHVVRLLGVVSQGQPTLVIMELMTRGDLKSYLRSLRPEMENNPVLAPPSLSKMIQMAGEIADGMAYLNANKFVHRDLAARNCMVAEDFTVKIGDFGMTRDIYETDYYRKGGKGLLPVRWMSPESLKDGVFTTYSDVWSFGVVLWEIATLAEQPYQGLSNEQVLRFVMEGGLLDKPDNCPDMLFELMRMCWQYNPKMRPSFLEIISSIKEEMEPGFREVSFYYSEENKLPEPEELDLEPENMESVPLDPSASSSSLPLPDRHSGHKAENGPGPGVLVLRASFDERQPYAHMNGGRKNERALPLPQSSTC
In short: as §1

[7] = biological target: T7, kinases of the scanMAX Kinase assay panel (Homo sapiens, UniProt P22694); conditions: PKAC-beta; 1 uM
T7 construct: purchased DiscoverX Co. (contract measurement) scanMAX Kinase assay panel
In short: as §1

[8] = biological target: T8, kinases of the scanMAX Kinase assay panel (Homo sapiens, UniProt O14976); conditions: GAK; 1 uM
T8 construct: purchased DiscoverX Co. (contract measurement) scanMAX Kinase assay panel
T8 sequence (O14976 1-1311): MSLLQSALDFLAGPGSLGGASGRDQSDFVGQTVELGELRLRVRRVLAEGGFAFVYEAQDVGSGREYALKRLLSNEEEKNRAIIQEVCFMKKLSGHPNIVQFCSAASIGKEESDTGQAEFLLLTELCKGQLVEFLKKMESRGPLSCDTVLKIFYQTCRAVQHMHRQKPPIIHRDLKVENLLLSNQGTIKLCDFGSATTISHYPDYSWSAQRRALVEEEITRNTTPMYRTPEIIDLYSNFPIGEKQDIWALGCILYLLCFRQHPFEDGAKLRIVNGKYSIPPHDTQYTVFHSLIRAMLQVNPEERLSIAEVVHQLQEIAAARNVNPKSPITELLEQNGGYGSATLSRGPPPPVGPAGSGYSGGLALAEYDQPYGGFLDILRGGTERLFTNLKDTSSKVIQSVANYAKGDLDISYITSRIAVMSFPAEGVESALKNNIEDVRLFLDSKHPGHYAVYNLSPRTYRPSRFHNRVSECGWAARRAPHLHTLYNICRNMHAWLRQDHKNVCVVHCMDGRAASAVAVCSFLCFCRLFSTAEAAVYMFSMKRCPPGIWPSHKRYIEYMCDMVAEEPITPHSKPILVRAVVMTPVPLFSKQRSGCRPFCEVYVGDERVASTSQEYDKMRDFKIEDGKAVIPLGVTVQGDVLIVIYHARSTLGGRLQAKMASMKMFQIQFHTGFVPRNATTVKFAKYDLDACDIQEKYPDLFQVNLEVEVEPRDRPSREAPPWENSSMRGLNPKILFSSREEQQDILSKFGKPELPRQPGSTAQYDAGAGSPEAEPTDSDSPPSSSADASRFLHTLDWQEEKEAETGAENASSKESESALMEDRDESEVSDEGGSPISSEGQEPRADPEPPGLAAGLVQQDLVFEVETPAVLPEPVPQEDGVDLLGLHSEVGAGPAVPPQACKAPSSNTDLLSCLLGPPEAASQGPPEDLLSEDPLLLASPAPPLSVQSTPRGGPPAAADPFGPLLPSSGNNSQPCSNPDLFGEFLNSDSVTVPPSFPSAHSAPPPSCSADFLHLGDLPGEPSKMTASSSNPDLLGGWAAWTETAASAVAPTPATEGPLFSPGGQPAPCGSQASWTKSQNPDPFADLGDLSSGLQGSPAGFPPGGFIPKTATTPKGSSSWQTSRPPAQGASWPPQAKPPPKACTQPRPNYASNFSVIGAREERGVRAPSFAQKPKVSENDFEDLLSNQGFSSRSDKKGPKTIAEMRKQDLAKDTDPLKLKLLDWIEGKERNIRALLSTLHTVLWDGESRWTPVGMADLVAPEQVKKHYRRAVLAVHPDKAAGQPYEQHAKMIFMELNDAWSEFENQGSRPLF
In short: as §1

[9] = biological target: T9, kinases of the scanMAX Kinase assay panel (Homo sapiens, UniProt Q15208); conditions: NDR1; 1 uM
T9 construct: purchased DiscoverX Co. (contract measurement) scanMAX Kinase assay panel
T9 sequence (Q15208 whole entry): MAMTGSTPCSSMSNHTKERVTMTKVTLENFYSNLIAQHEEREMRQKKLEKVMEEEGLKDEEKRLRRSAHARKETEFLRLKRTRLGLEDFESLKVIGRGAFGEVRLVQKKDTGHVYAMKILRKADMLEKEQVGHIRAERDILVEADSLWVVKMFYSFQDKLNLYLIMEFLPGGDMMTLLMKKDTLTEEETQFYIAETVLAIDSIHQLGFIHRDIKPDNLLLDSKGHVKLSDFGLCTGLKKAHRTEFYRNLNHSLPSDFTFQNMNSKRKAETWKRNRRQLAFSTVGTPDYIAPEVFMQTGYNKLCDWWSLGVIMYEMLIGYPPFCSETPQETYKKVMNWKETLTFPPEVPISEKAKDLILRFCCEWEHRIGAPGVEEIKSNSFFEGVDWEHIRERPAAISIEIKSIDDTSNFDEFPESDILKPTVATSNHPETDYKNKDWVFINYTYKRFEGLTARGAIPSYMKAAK
In short: as §1

[10] = biological target: T10, kinases of the scanMAX Kinase assay panel (Homo sapiens, UniProt Q9HC98); conditions: NEK6; 1 uM
T10 construct: purchased DiscoverX Co. (contract measurement) scanMAX Kinase assay panel
T10 sequence (Q9HC98 whole entry): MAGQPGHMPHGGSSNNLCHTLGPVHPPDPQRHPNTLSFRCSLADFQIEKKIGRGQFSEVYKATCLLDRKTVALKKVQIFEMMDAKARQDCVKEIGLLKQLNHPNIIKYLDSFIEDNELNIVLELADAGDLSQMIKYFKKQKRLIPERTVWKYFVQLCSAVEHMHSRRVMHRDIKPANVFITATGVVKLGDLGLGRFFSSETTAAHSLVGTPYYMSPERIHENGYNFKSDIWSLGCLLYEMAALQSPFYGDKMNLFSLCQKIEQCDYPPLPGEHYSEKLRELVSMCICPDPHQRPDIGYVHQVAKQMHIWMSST
In short: as §1

[11] = biological target: T11, kinases of the scanMAX Kinase assay panel (Homo sapiens, UniProt Q13557); conditions: CAMK2D; 1 uM
T11 construct: purchased DiscoverX Co. (contract measurement) scanMAX Kinase assay panel
T11 sequence (Q13557 whole entry): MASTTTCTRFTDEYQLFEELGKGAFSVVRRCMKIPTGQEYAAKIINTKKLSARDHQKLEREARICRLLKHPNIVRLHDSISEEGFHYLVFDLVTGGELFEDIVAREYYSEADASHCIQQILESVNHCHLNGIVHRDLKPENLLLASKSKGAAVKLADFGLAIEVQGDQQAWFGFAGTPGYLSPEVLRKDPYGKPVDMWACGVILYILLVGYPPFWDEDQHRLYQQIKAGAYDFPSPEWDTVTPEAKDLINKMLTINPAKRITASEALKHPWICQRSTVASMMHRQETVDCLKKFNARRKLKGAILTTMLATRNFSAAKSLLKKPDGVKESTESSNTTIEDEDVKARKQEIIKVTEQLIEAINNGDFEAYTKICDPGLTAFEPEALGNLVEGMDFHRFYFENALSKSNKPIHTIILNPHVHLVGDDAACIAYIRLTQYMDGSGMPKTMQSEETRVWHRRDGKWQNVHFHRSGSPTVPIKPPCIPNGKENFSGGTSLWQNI
In short: as §1

T1 sequence (Q13131 whole entry): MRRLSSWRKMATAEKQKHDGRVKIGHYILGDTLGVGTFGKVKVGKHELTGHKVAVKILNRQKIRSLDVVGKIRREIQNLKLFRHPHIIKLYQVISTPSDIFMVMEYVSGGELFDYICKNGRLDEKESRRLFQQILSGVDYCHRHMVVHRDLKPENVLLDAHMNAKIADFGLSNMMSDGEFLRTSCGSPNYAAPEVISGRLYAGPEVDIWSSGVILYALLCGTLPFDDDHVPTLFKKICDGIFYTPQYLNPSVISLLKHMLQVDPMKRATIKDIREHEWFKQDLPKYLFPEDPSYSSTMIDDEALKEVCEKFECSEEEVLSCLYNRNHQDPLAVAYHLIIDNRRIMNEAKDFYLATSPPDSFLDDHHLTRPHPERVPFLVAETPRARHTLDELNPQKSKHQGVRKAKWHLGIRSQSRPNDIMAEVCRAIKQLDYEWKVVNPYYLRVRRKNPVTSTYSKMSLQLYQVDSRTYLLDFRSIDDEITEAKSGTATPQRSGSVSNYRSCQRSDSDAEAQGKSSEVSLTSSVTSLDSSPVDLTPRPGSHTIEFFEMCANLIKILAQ

SMILES	remaining binding at 1 µM [1]	remaining binding at 1 µM [2]	remaining binding at 1 µM [3]	remaining binding at 1 µM [4]	remaining binding at 1 µM [5]	remaining binding at 1 µM [6]	remaining binding at 1 µM [7]	remaining binding at 1 µM [8]	remaining binding at 1 µM [9]	remaining binding at 1 µM [10]	remaining binding at 1 µM [11]
CNc1nc(Nc2ccc(C(=O)N3CCOCC3)cc2OC)nc2[nH]cc(C#N)c12 [Example 1, 2-((2-methoxy-4-(morpholine-4-carbonyl)phenyl)amino)-4-(methylamino)-7H-pyrrolo[2,3-d]pyrimidine-5-carbonitrile]	87%	50%	48%	91%	69%	82%	89%	11%	84%	95%	82%
CC1(Nc2nc(Nc3cnn([C@H]4CCN(C5COC5)C[C@@H]4F)c3Cl)nc3[nH]cc(C#N)c23)CC1 [Example 52, 2-((5-chloro-1-((3S,4S)-3-fluoro-1-(oxetane-3-yl)piperidine-4-yl)-1H-pyrazole-4-yl)amino)((1-methylcyclopropyl)amino)-7H-pyrrolo[2,3-d]pyrimidine-5-carbonitrile]	4.3%	14%	0.35%	31%	28%	19%	95%	5.8%	42%	93%	65%
CCNc1nc(Nc2ccc(C(=O)N3CCC(N4CCOCC4)CC3)cc2OC)nc2[nH]cc(C(F)(F)F)c12 [Example 104, (4-((4-(ethylamino)-5-(trifluoromethyl)-7H-pyrrolo[2,3-d]pyrimidine-2-yl)amino)-3-methoxyphenyl)(4-morpholinopiperidine-1-yl)methanone]	100%	66%	7.1%	87%	100%	12%	100%	1%	94%	100%	66%
